Consider five molecules from ChEMBL document CHEMBL4819116, “Design, synthesis, and biological evaluation of stapled ascaphin-8 peptides” (Bioorg Med Chem, 2021).

The test system of series [1] is LNCaP C4-2B. In words: Cytotoxicity against human LNCaP C4-2B cells assessed as reduction in cell viability measured after 96 hrs b y CCK-8 assay. The class given is functional, cell-based. In general terms: Tetrazolium dyes change colour on reduction, which living cells bring about.
The test system of series [2] is A549. The series can be described thus: Inhibition of colony formation in human A549 cells measured after 14 days by crystal violet staining based light microscopy. To be noted: dose 0-4 µM, time 14.0 day. The class given is functional, cell-based.
Series [3] can be described thus: Helicity of the compound in TFE aqueous solution by CD spectroscopy. The series is classed as physicochemical. To be noted: buffer.
Series [4] deals with A549. The series can be described thus: Antimigratory activity against human A549 cells assessed as inhibition of cell migration measured for 24 hrs by crystal violet staining - light microscopy based transwell migration assay. The class given is functional. To be noted: dose 0-4 µM.
In series [5] the test system is HEK-293T. In words: Cytotoxicity against human HEK293T cells assessed as reduction in cell viability measured after 96 hrs b y CCK-8 assay. The class given is cell-based.
The test system of series [6] is A549. The series can be described thus: Cytotoxicity against human A549 cells assessed as reduction in cell viability measured after 96 hrs b y CCK-8 assay. The series is classed as functional, cell-based. To be noted: A549, 96 h.
Series [7] is described as follows: Hemolytic activity in rabbit red blood cells assessed as hemoglobin release. The series is classed as ADME, cell-based, Oryctolagus cuniculus, Erythrocyte.
Series [8] deals with T1, trypsin (Homo sapiens, UniProt P07477+P07478+P35030). In words: Stability of the compound assessed as trypsin (unknown origin)-mediated degradation by measuring half life using pH 7.4 PBS buffer by HPLC analysis. The settings on record: trypsin in PBS buffer. The class given is ADME, protein assay.
Series [9] has as its target T1, trypsin. The series can be described thus: Stability of the compound assessed as trypsin (unknown origin)-mediated degradation using pH 7.4 PBS buffer measured for 60 mins by HPLC analysis. The series is classed as ADME, protein assay. The settings on record: trypsin in PBS buffer, read-out: Drug degradation.

Where a SMILES comes first, the peptide text is derived from it. Bridges are numbered along the chain shown (N, C = ends). [ ]: non-standard residue; d: D form. S8 = C=CCCCCCC[C@](C)(N)C(=O)O; S5 = C=CCCC[C@](C)(N)C(=O)O

As to `CC(C)C[C@H](NC(=O)[C@H](CC(C)C)NC(=O)[C@H](CC(=O)O)NC(=O)[C@H](CCCCN)NC(=O)[C@H](Cc1ccccc1)NC(=O)CN)C(=O)N[C@@H](CCCCN)C(=O)NCC(=O)N[C@@H](C)C(=O)N[C@@H](C)C(=O)N[C@@H](CCCCN)C(=O)N[C@@]1(C)CCC/C=C\CCC[C@@](C)(C(=O)N[C@H](C(=O)N[C@@H](CC(C)C)C(=O)N[C@@H](Cc2ccccc2)C(N)=O)C(C)C)NC(=O)[C@H](CCCCN)NC(=O)[C@H](C(C)C)NC(=O)[C@H](CC(C)C)NC1=O` (H-GFKDLLKGAAK[S5]LVK[S5]VLF-NH2; staple (Z) 12-16), the IC50 (usually the point on the concentration scale where inhibition reaches its midpoint) amounted to 7.17 µM in series [1], 16.4 µM in series [5] and 2.39 µM in series [6]. Moreover, the inhibition entry in series [2] is “Dose-Dependent Effect”. Further, the Activity in [3] is 51%; in [4], “Dose-Dependent Effect”. The 50% haemolytic concentration (HC50) (in general, the concentration that lyses half of the red blood cells) in [7] is 40.6 µM. Besides, the half-life (in general, the time in which the quantity being followed falls by half) in series [8] is 36 min.
Consider `CC(C)C[C@@H]1NC(=O)[C@H](C)NC(=O)[C@H](CCCCN)NC(=O)[C@H](C)NC(=O)[C@@](C)(NC(=O)CNC(=O)[C@H](CCCCN)NC(=O)[C@H](CC(C)C)NC(=O)[C@H](CC(C)C)NC(=O)[C@H](CC(=O)O)NC(=O)[C@H](CCCCN)NC(=O)[C@H](Cc2ccccc2)NC(=O)CN)CCCCCC/C=C/CCC[C@@](C)(C(=O)N[C@H](C(=O)N[C@@H](CC(C)C)C(=O)N[C@@H](Cc2ccccc2)C(N)=O)C(C)C)NC(=O)[C@H](CCCCN)NC(=O)[C@H](C(C)C)NC1=O` (H-GFKDLLKG[S8]AKALVK[S5]VLF-NH2; staple (E) 9-16), for which the IC50 in series [1] came out at 17.3 µM; in series [5], 44.3 µM; in [6] it was 11.7 µM. In [3], this molecule had an Activity of 80%. Besides, in [7], the concentration for 50% haemolysis (HC50) was 90.5 µM.
In the case of `CC(C)C[C@H](NC(=O)[C@H](CC(=O)O)NC(=O)[C@H](CCCCN)NC(=O)[C@H](Cc1ccccc1)NC(=O)CN)C(=O)N[C@@H](CC(C)C)C(=O)N[C@@H](CCCCN)C(=O)N[C@@]1(C)CCC/C=C\CCC[C@@](C)(C(=O)N[C@@H](CC(C)C)C(=O)N[C@H](C(=O)N[C@@H](CCCCN)C(=O)N[C@H](C(=O)N[C@H](C(=O)N[C@@H](CC(C)C)C(=O)N[C@@H](Cc2ccccc2)C(N)=O)C(C)C)[C@@H](C)O)C(C)C)NC(=O)[C@H](CCCCN)NC(=O)[C@H](C)NC(=O)[C@H](C)NC1=O` (H-GFKDLLK[S5]AAK[S5]LVKTVLF-NH2; staple (Z) 8-12), the results for the IC50 in series [1], in [5] and in [6] were 7.88 µM, 19.7 µM and 2.57 µM, respectively. Besides, in series [3], the Activity was 48%. For the same molecule, the HC50 in [7] was determined as 40.2 µM.
Taken in the same sequence, the figures for `CC(C)C[C@H](NC(=O)[C@H](C)NC(=O)[C@H](CCCCN)NC(=O)[C@H](C)NC(=O)[C@H](C)NC(=O)[C@]1(C)CCC/C=C\CCC[C@](C)(NC(=O)[C@H](CCCCN)NC(=O)[C@H](Cc2ccccc2)NC(=O)CN)C(=O)N[C@@H](CC(C)C)C(=O)N[C@@H](CC(C)C)C(=O)N[C@@H](CCCCN)C(=O)N1)C(=O)N[C@H](C(=O)N[C@@H](CCCCN)C(=O)N[C@H](C(=O)N[C@H](C(=O)N[C@@H](CC(C)C)C(=O)N[C@@H](Cc1ccccc1)C(N)=O)C(C)C)[C@@H](C)O)C(C)C` (H-GFK[S5]LLK[S5]AAKALVKTVLF-NH2; staple (Z) 4-8) were 11.1 µM, 33.9 µM, 4.1 µM, 42% and 79.9 µM.
In the case of H-GFKDLLKGAAKALVKTVLF-NH2 [Ascaphin-8], the concentration for half-maximal inhibition (IC50) in series [1] was found to be 42.9 µM; in [5], 53.7 µM; in series [6] it was 33.8 µM. The metabolised at 1 h in [9] was determined as 100%. The same molecule displayed an Activity in series [3] of 47%. Moreover, in series [7], the HC50 was greater than 100 µM. In addition, in [8], the half-life came to 14 min.
